Measured values as given in patent US20230310428A1, “EGFR INHIBITOR AND PREPARATION METHOD AND USE THEREOF” (HONGYUN BIOTECH CO., LTD., priority 2020, published 2023).

Experiments:
Assay in all cases: Growth inhibitory activity of compounds on BaF3 cell lines stably transfected with kinase (MTS, 48 h)
Assay type in all cases: cell-based
[1] = target: T1, various mutants of kinase EGFR (BaF3 cell lines stably transfected with kinase) (Homo sapiens, UniProt P00533); conditions: BaF3 cells stably transfected with EGFR Δ19Del, read-out: IC50, growth inhibition, Δ19Del
T1 construct: other: BaF3 cells stably transfected with EGFR Δ19Del; MTS, 48 h; other: BaF3 cell line stably transfected with EGFR Δ19Del
Procedure: (§1) The activity of compounds against various mutants of kinase EGFR was evaluated by their effect of inhibiting growth of BaF3 cell lines stably transfected with kinase. The specific test method was given as follows:
(§2) 1) Culture medium: DMEM (Dulbecco’s modified eagle medium) or RPMI 1640 (containing 10% fetal bovine serum, 100 µg/mL ampicillin, 100 µg/mL streptomycin).
(§3) 2) Reagent: MTS reaction solution (containing 2 mg/mL of MTS [3-(4,5-dimethylthiazol-2-yl)-5-(3-carboxymethoxyphenyl)-2-(4-sulfophenyl)-2H-tetrazoliu m, inner Salt]; 100 µg/mL of PES ([…])).
(§4) 3) Compound test: cells were incubated into a 96-well culture plate, the volume of cytosol was 90 µL, and then 10 µL of the compound at each gradient concentration was added. That is, the highest concentration was 10 µM, which was diluted stepwise by ⅓, and 8 concentration points were set in total; 0.1% DMSO (dimethyl sulfoxide) was contained in the system. The cell plate with uniformly mixed compound was cultured in a cell culture incubator (37° C.; 5% CO2) for 48 h, then 20 µL of MTS reaction solution was added, uniformly mixed and incubated in the cell culture incubator (37° C.; 5% CO2) for 1-4 h. OD values at 490 nm were measured by a microplate reader (VARIOSKAN FLASH, Thermo). Two parallels were set in each group of experiments, with 0.1% (a final concentration) DMSO as a negative control, and a culture medium without cells and compounds as a blank control. The cell growth inhibition rate was calculated by the following formula: […]
(§5) 4) IC50 calculation: The semi-inhibitory concentration of the compounds acting on cells was calculated using GradPad Prism 5 software according to the measured cell growth inhibition rate.

[2] = target: T2, various mutants of kinase EGFR (BaF3 cell lines stably transfected with kinase) (Homo sapiens, UniProt P00533, C797S/L858R/T790M); conditions: BaF3 cells stably transfected with EGFR L858R/T790M/C797S, read-out: IC50, growth inhibition, L858R/T790M/C797S
T2 construct: expressed in transfected cells; host or cells: BaF3
Procedure: as §1, §2, §3, §4, §5

[3] = target: T3, various mutants of kinase EGFR (BaF3 cell lines stably transfected with kinase) (Homo sapiens, UniProt P00533, L858R); conditions: BaF3 cells stably transfected with EGFR L858R, read-out: IC50, growth inhibition, L858R
T3 construct: expressed in transfected cells; host or cells: BaF3
Procedure: as §1, §2, §3, §4, §5

[4] = target: T4, various mutants of kinase EGFR (BaF3 cell lines stably transfected with kinase) (Homo sapiens, UniProt P00533, L858R/T790M); conditions: BaF3 cells stably transfected with EGFR L858R/T790M, read-out: IC50, growth inhibition, L858R/T790M
T4 construct: expressed in transfected cells; host or cells: BaF3
Procedure: as §1, §2, §3, §4, §5

[5] = target: T5, various mutants of kinase EGFR (BaF3 cell lines stably transfected with kinase) (Homo sapiens, UniProt P00533, T790M/C797S, form not given); conditions: BaF3 cells stably transfected with EGFR Δ19Del/T790M/C797S, read-out: IC50, growth inhibition, Δ19Del/T790M/C797S
T5 construct: other: BaF3 cells stably transfected with EGFR Δ19Del/T790M/C797S; MTS, 48; other: BaF3 cell line stably transfected with EGFR Δ19Del/T790M/C7
Procedure: as §1, §2, §3, §4, §5

[6] = target: T6, various mutants of kinase EGFR (BaF3 cell lines stably transfected with kinase) (Homo sapiens, UniProt P00533, T790M, form not given); conditions: BaF3 cells stably transfected with EGFR Δ19Del/T790M, read-out: IC50, growth inhibition, Δ19Del/T790M
T6 construct: other: BaF3 cells stably transfected with EGFR Δ19Del/T790M; MTS, 48 h; other: BaF3 cell line stably transfected with EGFR Δ19Del/T790M; MTS, 48
Procedure: as §1, §2, §3, §4, §5

T5 sequence (P00533 with tags, fused parts or gaps DEL746-750/T790M/C797S, form open): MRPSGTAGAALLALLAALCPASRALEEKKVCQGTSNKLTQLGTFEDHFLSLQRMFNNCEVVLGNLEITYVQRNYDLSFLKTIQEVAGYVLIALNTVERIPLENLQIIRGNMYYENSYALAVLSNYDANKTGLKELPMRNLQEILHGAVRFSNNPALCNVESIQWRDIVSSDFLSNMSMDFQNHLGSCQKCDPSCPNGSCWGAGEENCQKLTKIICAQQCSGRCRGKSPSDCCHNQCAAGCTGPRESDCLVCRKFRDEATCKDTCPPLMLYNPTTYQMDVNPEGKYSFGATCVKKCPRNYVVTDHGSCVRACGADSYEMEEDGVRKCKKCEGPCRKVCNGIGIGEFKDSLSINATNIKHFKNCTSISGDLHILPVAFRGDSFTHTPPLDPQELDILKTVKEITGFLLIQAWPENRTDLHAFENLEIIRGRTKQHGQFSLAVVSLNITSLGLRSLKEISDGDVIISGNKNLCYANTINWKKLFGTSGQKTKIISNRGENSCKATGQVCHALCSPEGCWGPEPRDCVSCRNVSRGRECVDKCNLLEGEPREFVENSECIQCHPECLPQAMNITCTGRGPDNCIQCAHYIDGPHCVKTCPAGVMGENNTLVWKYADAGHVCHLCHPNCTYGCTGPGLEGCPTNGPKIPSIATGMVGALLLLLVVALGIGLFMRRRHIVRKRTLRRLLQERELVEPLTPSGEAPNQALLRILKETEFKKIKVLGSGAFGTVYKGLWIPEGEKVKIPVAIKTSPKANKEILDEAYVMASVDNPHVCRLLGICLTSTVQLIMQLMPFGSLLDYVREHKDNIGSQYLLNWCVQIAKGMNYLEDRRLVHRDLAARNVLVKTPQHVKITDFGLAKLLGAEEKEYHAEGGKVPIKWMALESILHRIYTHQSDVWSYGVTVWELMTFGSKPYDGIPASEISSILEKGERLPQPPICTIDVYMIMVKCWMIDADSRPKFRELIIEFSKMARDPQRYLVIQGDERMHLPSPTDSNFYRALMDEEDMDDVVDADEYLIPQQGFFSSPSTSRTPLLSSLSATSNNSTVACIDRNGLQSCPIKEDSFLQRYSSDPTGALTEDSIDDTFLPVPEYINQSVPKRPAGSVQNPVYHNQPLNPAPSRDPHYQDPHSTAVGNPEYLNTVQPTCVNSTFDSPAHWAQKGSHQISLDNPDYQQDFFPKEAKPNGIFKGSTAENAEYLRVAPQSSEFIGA
T6 sequence (P00533 with tags, fused parts or gaps DEL746-750/T790M, form open): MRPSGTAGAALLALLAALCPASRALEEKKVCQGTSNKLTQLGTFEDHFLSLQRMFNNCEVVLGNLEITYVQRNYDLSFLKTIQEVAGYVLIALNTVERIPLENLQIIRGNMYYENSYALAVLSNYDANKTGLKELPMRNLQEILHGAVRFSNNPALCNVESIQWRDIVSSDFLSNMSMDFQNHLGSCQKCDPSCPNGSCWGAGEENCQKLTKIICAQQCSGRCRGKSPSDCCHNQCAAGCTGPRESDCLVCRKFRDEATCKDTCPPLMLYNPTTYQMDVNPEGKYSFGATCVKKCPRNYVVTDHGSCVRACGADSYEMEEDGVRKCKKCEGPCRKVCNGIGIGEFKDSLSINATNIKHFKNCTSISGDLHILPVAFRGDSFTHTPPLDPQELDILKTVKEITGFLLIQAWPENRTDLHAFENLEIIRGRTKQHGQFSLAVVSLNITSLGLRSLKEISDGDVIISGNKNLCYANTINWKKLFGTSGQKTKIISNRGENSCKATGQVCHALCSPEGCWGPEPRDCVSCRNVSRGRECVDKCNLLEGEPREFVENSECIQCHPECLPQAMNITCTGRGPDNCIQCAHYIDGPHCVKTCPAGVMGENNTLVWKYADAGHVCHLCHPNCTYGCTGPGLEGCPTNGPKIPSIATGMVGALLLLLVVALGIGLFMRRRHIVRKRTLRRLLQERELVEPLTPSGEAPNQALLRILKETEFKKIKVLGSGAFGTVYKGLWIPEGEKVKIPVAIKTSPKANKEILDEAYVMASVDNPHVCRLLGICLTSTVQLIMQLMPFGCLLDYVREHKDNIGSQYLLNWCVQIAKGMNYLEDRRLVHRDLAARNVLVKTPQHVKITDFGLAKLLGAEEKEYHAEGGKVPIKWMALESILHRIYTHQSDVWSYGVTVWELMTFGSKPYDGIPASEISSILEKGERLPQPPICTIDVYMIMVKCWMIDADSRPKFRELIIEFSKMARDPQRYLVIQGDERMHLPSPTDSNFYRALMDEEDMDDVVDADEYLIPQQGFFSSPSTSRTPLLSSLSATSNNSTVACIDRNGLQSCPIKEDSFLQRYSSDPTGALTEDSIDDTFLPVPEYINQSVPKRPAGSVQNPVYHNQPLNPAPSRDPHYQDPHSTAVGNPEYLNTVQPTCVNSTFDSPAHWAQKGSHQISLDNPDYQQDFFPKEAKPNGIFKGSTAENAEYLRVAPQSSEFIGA
T3 sequence (P00533 25-1210 L858R): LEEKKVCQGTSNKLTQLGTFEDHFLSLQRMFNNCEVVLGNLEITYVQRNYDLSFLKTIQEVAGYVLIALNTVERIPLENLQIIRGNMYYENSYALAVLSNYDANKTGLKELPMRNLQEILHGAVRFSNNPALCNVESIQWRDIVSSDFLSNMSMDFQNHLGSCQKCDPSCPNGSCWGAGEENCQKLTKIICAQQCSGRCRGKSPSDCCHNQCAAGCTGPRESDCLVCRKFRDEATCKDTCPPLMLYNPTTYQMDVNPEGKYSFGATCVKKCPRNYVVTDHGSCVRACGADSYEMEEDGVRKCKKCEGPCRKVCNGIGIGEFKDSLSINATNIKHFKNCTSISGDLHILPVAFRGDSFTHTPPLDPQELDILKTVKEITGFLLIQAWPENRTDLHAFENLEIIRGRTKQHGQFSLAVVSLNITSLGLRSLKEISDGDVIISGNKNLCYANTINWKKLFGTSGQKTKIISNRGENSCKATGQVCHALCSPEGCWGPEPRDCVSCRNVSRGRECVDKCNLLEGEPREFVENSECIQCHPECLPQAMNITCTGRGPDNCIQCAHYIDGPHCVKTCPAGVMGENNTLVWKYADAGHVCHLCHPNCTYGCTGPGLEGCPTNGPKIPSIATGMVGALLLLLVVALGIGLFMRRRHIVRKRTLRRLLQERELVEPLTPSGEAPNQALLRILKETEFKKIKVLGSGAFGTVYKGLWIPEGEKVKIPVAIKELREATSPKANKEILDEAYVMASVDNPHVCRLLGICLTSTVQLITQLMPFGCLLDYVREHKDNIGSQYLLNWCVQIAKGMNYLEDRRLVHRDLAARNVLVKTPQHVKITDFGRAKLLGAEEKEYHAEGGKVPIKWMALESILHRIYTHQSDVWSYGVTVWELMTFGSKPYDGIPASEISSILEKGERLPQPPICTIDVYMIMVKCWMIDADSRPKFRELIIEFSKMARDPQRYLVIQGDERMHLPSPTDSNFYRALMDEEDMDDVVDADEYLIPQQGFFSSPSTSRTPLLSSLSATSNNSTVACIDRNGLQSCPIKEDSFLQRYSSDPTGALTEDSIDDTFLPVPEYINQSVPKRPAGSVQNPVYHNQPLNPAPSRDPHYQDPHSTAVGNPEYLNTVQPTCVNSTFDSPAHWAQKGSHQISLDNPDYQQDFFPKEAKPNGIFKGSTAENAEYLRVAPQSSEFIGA
T2 sequence (P00533 25-1210 T790M/C797S/L858R): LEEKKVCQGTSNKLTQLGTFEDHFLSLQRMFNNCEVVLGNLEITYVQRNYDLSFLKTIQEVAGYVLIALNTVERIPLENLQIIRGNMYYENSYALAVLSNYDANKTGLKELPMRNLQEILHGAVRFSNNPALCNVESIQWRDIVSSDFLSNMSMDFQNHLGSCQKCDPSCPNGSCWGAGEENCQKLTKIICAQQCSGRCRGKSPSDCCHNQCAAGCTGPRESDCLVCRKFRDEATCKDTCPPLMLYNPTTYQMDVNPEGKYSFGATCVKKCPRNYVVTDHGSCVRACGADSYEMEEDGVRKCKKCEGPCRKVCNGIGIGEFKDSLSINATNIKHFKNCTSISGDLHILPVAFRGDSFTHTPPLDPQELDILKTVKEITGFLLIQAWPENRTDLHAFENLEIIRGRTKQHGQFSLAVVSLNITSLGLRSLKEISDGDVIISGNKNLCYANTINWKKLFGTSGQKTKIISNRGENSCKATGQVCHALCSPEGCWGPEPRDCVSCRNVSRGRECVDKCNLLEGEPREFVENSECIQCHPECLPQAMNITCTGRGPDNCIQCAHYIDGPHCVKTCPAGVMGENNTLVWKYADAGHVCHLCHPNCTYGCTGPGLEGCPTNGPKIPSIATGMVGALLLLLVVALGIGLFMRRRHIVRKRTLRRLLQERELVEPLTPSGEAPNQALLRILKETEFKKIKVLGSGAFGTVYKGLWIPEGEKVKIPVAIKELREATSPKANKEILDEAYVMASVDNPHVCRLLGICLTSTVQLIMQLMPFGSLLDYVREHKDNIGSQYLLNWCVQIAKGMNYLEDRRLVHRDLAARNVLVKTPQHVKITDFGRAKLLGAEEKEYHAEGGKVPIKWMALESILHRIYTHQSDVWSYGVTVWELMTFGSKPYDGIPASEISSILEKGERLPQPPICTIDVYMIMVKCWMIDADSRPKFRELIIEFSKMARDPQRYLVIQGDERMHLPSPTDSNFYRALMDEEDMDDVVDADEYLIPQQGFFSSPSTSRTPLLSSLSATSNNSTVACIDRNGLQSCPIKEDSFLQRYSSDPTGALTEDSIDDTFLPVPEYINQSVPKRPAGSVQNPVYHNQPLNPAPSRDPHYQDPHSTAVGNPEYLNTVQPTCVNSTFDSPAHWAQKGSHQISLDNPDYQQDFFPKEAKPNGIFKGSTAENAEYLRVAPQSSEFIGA

Row | SMILES | IC50 [1] | IC50 [2] | IC50 [3] | IC50 [4] | IC50 [5] | IC50 [6]
1 | CCc1cc(Nc2ncc(Br)c(Nc3ccc4nccnc4c3N(C)S(C)(=O)=O)n2)c(OC)cc1N1CCC(N(C)C)C1 (stereo not drawn) [Compound I-17] | ≤ 50 nM | ≤ 50 nM | ≤ 50 nM | ≤ 50 nM | ≤ 50 nM | ≤ 50 nM
2 | COc1cc(N2CCC(N3CCN(C)CC3)CC2)ccc1Nc1ncc(Cl)c(Nc2ccc3nccnc3c2N(C)S(C)(=O)=O)n1 [Compound I-18] | 50 to 500 nM | 50 to 500 nM | 50 to 500 nM | ≤ 50 nM | 50 to 500 nM | 50 to 500 nM
3 | COc1cc(N2CCC(N3CCN(C)CC3)CC2)c(C)cc1Nc1ncc(Cl)c(Nc2ccc3nccnc3c2N(C)S(C)(=O)=O)n1 [Compound I-19] | ≤ 50 nM | ≤ 50 nM | ≤ 50 nM | ≤ 50 nM | ≤ 50 nM | ≤ 50 nM
4 | CCc1cc(Nc2ncc(Cl)c(Nc3ccc4nccnc4c3N(C)S(C)(=O)=O)n2)c(OC)cc1N1CCC(N2CCN(C)CC2)CC1 [Compound I-20] | ≤ 50 nM | ≤ 50 nM | ≤ 50 nM | ≤ 50 nM | ≤ 50 nM | ≤ 50 nM
5 | CCc1cc(Nc2ncc(Cl)c(Nc3ccc4nccnc4c3N(C)S(C)(=O)=O)n2)c(OC)nc1N1CCC(N2CCN(C)CC2)CC1 [Compound I-21] | 50 to 500 nM | ≤ 50 nM | ≤ 50 nM | ≤ 50 nM | ≤ 50 nM | ≤ 50 nM
6 | CCc1cc(Nc2ncc(Cl)c(Nc3ccc4nccnc4c3N(C)S(C)(=O)=O)n2)c(OC(F)(F)F)cc1N1CCC(N2CCN(C)CC2)CC1 [Compound I-22] | 50 to 500 nM | ≤ 50 nM | 50 to 500 nM | 50 to 500 nM | ≤ 50 nM | ≤ 50 nM
7 | C=Cc1cc(Nc2ncc(Cl)c(Nc3ccc4nccnc4c3N(C)S(C)(=O)=O)n2)c(OC(F)(F)F)cc1N1CCC(N2CCN(C)CC2)CC1 [Compound I-23] | ≤ 50 nM | ≤ 50 nM | ≤ 50 nM | ≤ 50 nM | ≤ 50 nM | ≤ 50 nM
8 | COc1cc(N2CCC(N3CCN(C)CC3)CC2)ccc1Nc1ncc(F)c(Nc2ccc3nccnc3c2N(C)S(C)(=O)=O)n1 [Compound I-24] | 50 to 500 nM | 50 to 500 nM | 50 to 500 nM | 50 to 500 nM | 50 to 500 nM | 50 to 500 nM
9 | COc1cc(N2CCC(N3CCN(C)CC3)CC2)c(C)cc1Nc1ncc(F)c(Nc2ccc3nccnc3c2N(C)S(C)(=O)=O)n1 [Compound I-25] | ≤ 50 nM | ≤ 50 nM | ≤ 50 nM | ≤ 50 nM | ≤ 50 nM | 50 to 500 nM
10 | CCc1cc(Nc2ncc(F)c(Nc3ccc4nccnc4c3N(C)S(C)(=O)=O)n2)c(OC)cc1N1CCC(N2CCN(C)CC2)CC1 [Compound I-26] | ≤ 50 nM | ≤ 50 nM | ≤ 50 nM | ≤ 50 nM | ≤ 50 nM | ≤ 50 nM
11 | COc1cc(N2CCC(N3CCN(C)CC3)CC2)ccc1Nc1ncc(C#N)c(Nc2ccc3nccnc3c2N(C)S(C)(=O)=O)n1 [Compound I-27] | 500 to 2500 nM | 500 to 2500 nM | 50 to 500 nM | 500 to 2500 nM | 500 to 2500 nM | 500 to 2500 nM
12 | COc1cc(N2CCC(N3CCN(C)CC3)CC2)c(C)cc1Nc1ncc(C#N)c(Nc2ccc3nccnc3c2N(C)S(C)(=O)=O)n1 [Compound I-28] | 50 to 500 nM | 50 to 500 nM | 50 to 500 nM | 50 to 500 nM | 50 to 500 nM | 50 to 500 nM
13 | CCc1cc(Nc2ncc(C#N)c(Nc3ccc4nccnc4c3N(C)S(C)(=O)=O)n2)c(OC)cc1N1CCC(N2CCN(C)CC2)CC1 [Compound I-29] | 50 to 500 nM | ≤ 50 nM | 50 to 500 nM | 50 to 500 nM | 50 to 500 nM | 50 to 500 nM
14 | COc1cc(N2CCC(N3CCN(C)CC3)CC2)ccc1Nc1ncc([N+](=O)[O-])c(Nc2ccc3nccnc3c2N(C)S(C)(=O)=O)n1 [Compound I-30] | 500 to 2500 nM | 500 to 2500 nM | 500 to 2500 nM | 50 to 500 nM | 50 to 500 nM | 500 to 2500 nM
